Target: human TYK2 (JH2domain-pseudokinase) (Homo sapiens (Human), UniProt P29597)
Assay: TYK2 JH2 Domain Binding Assay (KINOMEscan, DiscoveRx)
Settings: 11-point dilution, duplicate
Procedure, shortened: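 TYK2 JH2 (G556–D888)–NFkB DBD fusion, DNA-tagged, from HEK293 extracts (<0.1 nM) competed against immobilised biotinylated ligand for 1 h at room temperature, 0.9% DMSO. Bead-retained kinase quantified by qPCR; Kd from 11-point 3-fold series (top 30,000 nM, duplicate), Hill fit with slope −1.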

Chain of human TYK2 (JH2domain-pseudokinase) (P29597 556-888): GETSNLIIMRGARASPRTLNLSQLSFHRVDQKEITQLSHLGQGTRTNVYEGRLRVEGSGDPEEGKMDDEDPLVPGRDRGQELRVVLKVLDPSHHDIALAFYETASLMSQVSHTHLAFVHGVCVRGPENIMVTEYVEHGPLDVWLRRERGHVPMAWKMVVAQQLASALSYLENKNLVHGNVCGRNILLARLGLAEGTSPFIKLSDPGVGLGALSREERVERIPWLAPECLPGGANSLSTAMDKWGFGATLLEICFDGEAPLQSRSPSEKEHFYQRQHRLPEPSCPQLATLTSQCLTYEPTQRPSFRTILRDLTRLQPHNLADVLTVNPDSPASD

With `Cc1nc2c(Nc3ccc(C4CCCCO4)cc3S(C)(=O)=O)cc(NC(=O)C3CC3)nc2[nH]1` (stereo not drawn) [I-387, N-(2-methyl-7-((2-(methylsulfonyl)-4-(tetrahydro-2H-pyran-2-yl)phenyl)amino)-3H-imidazo[4,5-b]pyridin-5-yl)cyclopropanecarboxamide] the Kd was < 0.1 nM.
Molecule `Cc1nc2c(Nc3ccc(C4CCOC4)cc3S(C)(=O)=O)cc(NC(=O)C3CC3)nc2[nH]1` (stereo not drawn) [I-388, N-(2-methyl-7-((2-(methylsulfonyl)-4-(tetrahydrofuran-3-yl)phenyl)amino)-3H-imidazo[4,5-b]pyridin-5-yl)cyclopropanecarboxamide] has a Kd of 0.1 to 0.5 nM.
`CS(=O)(=O)c1cc(C2CCOC2)ccc1Nc1cc(NC(=O)C2CC2)nc2[nH]c(C(F)F)nc12` (stereo not drawn) [I-389, N-(2-(difluoromethyl)-7-((2-(methylsulfonyl)-4-(tetrahydrofuran-3-yl)phenyl)amino)-3H-imidazo[4,5-b]pyridin-5-yl)cyclopropanecarboxamide] showed a Kd of 0.5 to 1 nM.
Molecule `Cc1nc2c(Nc3ccc(C4CCCOC4)cc3S(C)(=O)=O)cc(NC(=O)C3CC3)nc2[nH]1` (stereo not drawn) [I-390, N-(2-methyl-7-((2-(methylsulfonyl)-4-(tetrahydro-2H-pyran-3-yl)phenyl)amino)-3H-imidazo[4,5-b]pyridin-5-yl)cyclopropanecarboxamide] has a Kd of 0.1 to 0.5 nM.
`CS(=O)(=O)c1cc(C2CCCOC2)ccc1Nc1cc(NC(=O)C2CC2)nc2[nH]c(C(F)F)nc12` (stereo not drawn) [I-391, N-(2-(difluoromethyl)-7-((2-(methylsulfonyl)-4-(tetrahydro-2H-pyran-3-yl)phenyl)amino)-3H-imidazo[4,5-b]pyridin-5-yl)cyclopropanecarboxamide] gave a Kd of 0.1 to 0.5 nM.
In the case of `CS(=O)(=O)c1ccccc1Nc1cc(Nc2cc3c(nn2)CCC3)nc2[nH]c(C(F)F)nc12` [I-392], the Kd is reported as < 0.1 nM.
`COCCCc1csc(-c2ccc(Nc3cc(NC(=O)C4CC4)nc4[nH]c(C(F)F)nc34)c(S(C)(=O)=O)c2)n1` [I-393] gave a Kd of 0.5 to 1 nM.
In the case of `Cc1nc2c(Nc3ccc(-c4cnn(C)c4C)cc3S(C)(=O)=O)cc(Nc3ccc(C(C)C)c(C#N)n3)nc2[nH]1` [I-394], the Kd is reported as 0.1 to 0.5 nM.
Work on `CN=[S@](C)(=O)c1ccccc1Nc1cc(NC(=O)C2CC2)nc2[nH]c(C(F)F)nc12` [I-395] yielded a Kd of 0.1 to 0.5 nM.
In the case of `CN=[S@@](C)(=O)c1ccccc1Nc1cc(NC(=O)C2CC2)nc2[nH]c(C(F)F)nc12` [I-396], the Kd is reported as 1 to 10 nM.
With `Cc1ncc(Nc2cc(Nc3ccc(C4CCCCO4)cc3S(C)(=O)=O)c3nc(C(F)F)[nH]c3n2)nc1C` (stereo not drawn) [I-397, 2-(difluoromethyl)-N5-(5,6-dimethylpyrazin-2-yl)-N7-(2-(methylsulfonyl)-4-(tetrahydro-2H-pyran-2-yl)phenyl)-3H-imidazo[4,5-b]pyridine-5,7-diamine] the Kd was 0.1 to 0.5 nM.
In the case of `Cc1nc2c(Nc3ccc(C4CCCCO4)cc3S(C)(=O)=O)cc(Nc3cnc(C)c(C)n3)nc2[nH]1` (stereo not drawn) [I-398, N5-(5,6-dimethylpyrazin-2-yl)-2-methyl-N7-(2-(methylsulfonyl)-4-(tetrahydro-2H-pyran-2-yl)phenyl)-3H-imidazo[4,5-b]pyridine-5,7-diamine], the Kd is reported as < 0.1 nM.
In the case of `CC1(C)CC(c2ccc(Nc3cc(NC(=O)C4CC4)nc4[nH]c(C(F)F)nc34)c(S(C)(=O)=O)c2)CC(C)(C)O1` [I-399], the Kd is reported as > 10 nM.
Work on `COC(C)c1ccc(Nc2cc(NC(=O)C3CC3)nc3[nH]c(C)nc23)c(S(C)(=O)=O)c1` (stereo not drawn) [I-400, N-(7-((4-(1-methoxyethyl)-2-(methylsulfonyl)phenyl)amino)-2-methyl-3H-imidazo[4,5-b]pyridin-5-yl)cyclopropanecarboxamide] yielded a Kd of 0.1 to 0.5 nM.
With `CS(=O)(=O)c1cc(C2CCCCO2)ccc1Nc1cc(NC(=O)C2CC2)nc2[nH]c(C(F)F)nc12` (stereo not drawn) [I-401, N-(2-(difluoromethyl)-7-((2-(methylsulfonyl)-4-(tetrahydro-2H-pyran-2-yl)phenyl)amino)-3H-imidazo[4,5-b]pyridin-5-yl)cyclopropanecarboxamide] the Kd was < 0.1 nM.
In the case of `COC(C)c1ccc(Nc2cc(NC(=O)C3CC3)nc3[nH]c(C(F)F)nc23)c(S(C)(=O)=O)c1` (stereo not drawn) [I-402, N-(2-(difluoromethyl)-7-((4-(1-methoxyethyl)-2-(methylsulfonyl)phenyl)amino)-3H-imidazo[4,5-b]pyridin-5-yl)cyclopropanecarboxamide], the Kd is reported as 0.5 to 1 nM.
Work on `COc1c(Nc2cc(Nc3ccc(NCCCCl)c(C#N)n3)nc3[nH]c(C)nc23)cccc1-c1nnn(C)n1` [I-403, 3-((3-chloropropyl)amino)-6-((7-((2-methoxy-3-(2-methyl-2H-tetrazol-5-yl)phenyl)amino)-2-methyl-3H-imidazo[4,5-b]pyridin-5-yl)amino)picolinonitrile] yielded a Kd of 0.5 to 1 nM.
`Cn1cncc1-c1ccc(Nc2cc(NC(=O)[C@H]3C[C@H]3F)nc3[nH]c(C(F)F)nc23)c(S(C)(=O)=O)c1` [I-405, (1R,2R)—N-(2-(difluoromethyl)-7-((4-(1-methyl-1H-imidazol-5-yl)-2-(methylsulfonyl)phenyl)amino)-3H-imidazo[4,5-b]pyridin-5-yl)-2-fluorocyclopropane-1-carboxamide] was tested, and the Kd was 0.1 to 0.5 nM.
`Cc1cn(C)nc1-c1ccc(Nc2cc(NC(=O)[C@@H]3C[C@@H]3F)nc3[nH]c(C(F)F)nc23)c(S(C)(=O)=O)c1` [I-406, (1 S,2S)—N-(2-(difluoromethyl)-7-((4-(1,4-dimethyl-1H-pyrazol-3-yl)-2-(methylsulfonyl)phenyl)amino)-3H-imidazo[4,5-b]pyridin-5-yl)-2-fluorocyclopropane-1-carboxamide] was tested, and the Kd was < 0.1 nM.
Work on `Cc1cn(C)nc1-c1ccc(Nc2cc(NC(=O)[C@H]3C[C@H]3F)nc3[nH]c(C(F)F)nc23)c(S(C)(=O)=O)c1` [I-407, (1R,2R)—N-(2-(difluoromethyl)-7-((4-(1,4-dimethyl-1H-pyrazol-3-yl)-2-(methylsulfonyl)phenyl)amino)-3H-imidazo[4,5-b]pyridin-5-yl)-2-fluorocyclopropane-1-carboxamide] yielded a Kd of 0.1 to 0.5 nM.
`CP(C)(=O)c1cc(C2CCOCC2)ccc1Nc1cc(NC(=O)C2CC2)nc2[nH]c(C(F)F)nc12` [I-408, N-(2-(difluoromethyl)-7-((2-(dimethylphosphoryl)-4-(tetrahydro-2H-pyran-4-yl)phenyl)amino)-3H-imidazo[4,5-b]pyridin-5-yl)cyclopropanecarboxamide] gave a Kd of 0.5 to 1 nM.
Work on `CS(=O)(=O)c1cc(C2CC2)ccc1Nc1cc(Nc2cc3n(n2)CCCCC3)nc2[nH]c(C(F)F)nc12` [I-409, N7-(4-cyclopropyl-2-(methylsulfonyl)phenyl)-2-(difluoromethyl)-N5-(5,6,7,8-tetrahydro-4H-pyrazolo[1,5-a]azepin-2-yl)-3H-imidazo[4,5-b]pyridine-5,7-diamine] yielded a Kd of 0.1 to 0.5 nM.
Work on `Cc1nc2c(Nc3ccc(C4CC4)cc3S(C)(=O)=O)cc(Nc3cc4n(n3)CCCCC4)nc2[nH]1` [I-410, N7-(4-cyclopropyl-2-(methylsulfonyl)phenyl)-2-methyl-N5-(5,6,7,8-tetrahydro-4H-pyrazolo[1,5-a]azepin-2-yl)-3H-imidazo[4,5-b]pyridine-5,7-diamine] yielded a Kd of 0.1 to 0.5 nM.
`Cc1nc2c(Nc3ccc(C4CCC4)cc3S(C)(=O)=O)cc(NC(=O)[C@@H]3CC3(F)F)nc2[nH]1` [I-411, (S)—N-(7-((4-cyclobutyl-2-(methylsulfonyl)phenyl)amino)-2-methyl-3H-imidazo[4,5-b]pyridin-5-yl)-2,2-difluorocyclopropane-1-carboxamide] showed a Kd of 1 to 10 nM.

From patent publication US10647713B2 (Nimbus Lakshmi, Inc., priority 2016, dated 2020)
